Literature values as cited in US20120270783A1, “Rapid opioid detoxification” (priority 2011, published 2012).
Where two headings read alike, the source gives them in different places.

Legend:
receptor sites = settings: relative to naloxone
[1] = in vivo

Row | Structure (SMILES) | receptor sites occupied, more than naloxone (receptor sites) | half-life [1] [h] | half-life ([1]; listed as Nalmefene) | time to rapid awakening after discontinuation (after maintenance of anesthesia for approximately 1-10 hours at recommended doses) | time to rapid awakening after discontinuation, usual (usually, after maintenance of anesthesia for approximately 1-10 hours) [min]
1 | C=C1CC[C@@]2(O)[C@H]3Cc4ccc(O)c5c4[C@@]2(CCN3CC2CC2)[C@H]1O5 [nalmefene] | approximately 50% | 10.8 | about 10.8 hours |  | 
2 | CC(C)c1cccc(C(C)C)c1O [propofol, 2,6-diisopropyl phenol] |  |  |  | less than 20 minutes | 10 to 15
